From patent US12247029B2, “Heterocyclic compounds as class II phosphoinositide 3-kinase inhibitors” (Forschungsverbund Berlin e.V., priority 2018, dated 2025) come the findings set out here.

By IC50 is commonly meant the concentration at which inhibition is half-maximal. For orientation: inhibition means the change of the read-out against control, counted positive when it falls.

The assay deals with PI3KC2α Δ1-298 (Homo sapiens (Human), UniProt O00443). Nature of the assay: ADP-Glo kinase assay with purified PI3KC2α Δ1-298. It counts as biochemical. Particulars: for IC50: read-out: IC50 (PI3KC2α; ADP-Glo™ assay). On the procedure: Previous studies have shown that PI3KC2α can utilize phosphatidylinositol (PI) or phosphatidylinositol 4-phosphate [PI(4)P] to produce PI(3)P or PI(3,4)P2 respectively but with a preference for PI(3,4)P2 production. To verify that purified PI3KC2α Δ1-298 is active, a radioactive kinase assay was performed with PI as a substrate and different amounts of purified PI3KC2α Δ1-298. The lipid product [PI(3)P] was separated on TLC plates, and the PI(3)P signal was correlated with the amount of PI3KC2α used (FIG. 4A). […] After having confirmed the activity of purified PI3KC2α Δ1-298, an assay suitable for high content screens in multiwell format (ADP-Glo™ assay) was established. The ADP-Glo™ assay has been used for universal detection of ATP hydrolysis. This assay measures ATP hydrolysis occurring during a kinase reaction. For detection, generated ADP is re-converted into ATP with the […] and converted into light by the Ultra-Glo™ Luciferase reagent. The luminescent signal reports kinase activity (FIG. 4B).
The ADP-Glo™ assay was first used to determine the linear correlation range of signal with different amounts of kinase, and then to assess the Kms for ATP and for PI. […] Further optimization of this assay allowed us to carry out medium-to-high throughput screening using low amounts of purified enzyme (at fixed concentrations of: ATP=40 μM, PI=200 μM, PI3KC2α A1−298=10 ng/μl).
Primary screens were performed using the ADP-Glo™ assay in a 384-well format. 37, 224 small molecules were screened for their ability to inhibit kinase activity of PI3KC2α Δ1-298. The concentration of each compound used in the primary screens was 10 μM. Kinase incubations with ATP but without PI were used as negative control samples. This primary screen turned out to be robust with an average z′ factor of 0.57, and therefore judged as successful.
ADP-Glo kinase assay was performed as described by the manufacturer's protocol. Briefly, the kinase assay was performed with a […] of liver PI/ATP/purified PI3KC2α for 20 min in kinase reaction buffer described above. To deplete the remaining ATP from the reaction, 5 μl of […] was added to the kinase reaction mixture and incubated for 40 min. For detection, the generated ADP is re-converted into ATP and converted into light by the Ultra-Glo™ luciferase in kinase detection reagent. The luminescent signal positively correlates with kinase activity. All reactions are performed in Corning® 384 well-white plates.
(In general: ADP-Glo turns the ADP formed in a reaction into a luminescent signal.)

PI3KC2α Δ1-298, sequence (O00443 299-1686): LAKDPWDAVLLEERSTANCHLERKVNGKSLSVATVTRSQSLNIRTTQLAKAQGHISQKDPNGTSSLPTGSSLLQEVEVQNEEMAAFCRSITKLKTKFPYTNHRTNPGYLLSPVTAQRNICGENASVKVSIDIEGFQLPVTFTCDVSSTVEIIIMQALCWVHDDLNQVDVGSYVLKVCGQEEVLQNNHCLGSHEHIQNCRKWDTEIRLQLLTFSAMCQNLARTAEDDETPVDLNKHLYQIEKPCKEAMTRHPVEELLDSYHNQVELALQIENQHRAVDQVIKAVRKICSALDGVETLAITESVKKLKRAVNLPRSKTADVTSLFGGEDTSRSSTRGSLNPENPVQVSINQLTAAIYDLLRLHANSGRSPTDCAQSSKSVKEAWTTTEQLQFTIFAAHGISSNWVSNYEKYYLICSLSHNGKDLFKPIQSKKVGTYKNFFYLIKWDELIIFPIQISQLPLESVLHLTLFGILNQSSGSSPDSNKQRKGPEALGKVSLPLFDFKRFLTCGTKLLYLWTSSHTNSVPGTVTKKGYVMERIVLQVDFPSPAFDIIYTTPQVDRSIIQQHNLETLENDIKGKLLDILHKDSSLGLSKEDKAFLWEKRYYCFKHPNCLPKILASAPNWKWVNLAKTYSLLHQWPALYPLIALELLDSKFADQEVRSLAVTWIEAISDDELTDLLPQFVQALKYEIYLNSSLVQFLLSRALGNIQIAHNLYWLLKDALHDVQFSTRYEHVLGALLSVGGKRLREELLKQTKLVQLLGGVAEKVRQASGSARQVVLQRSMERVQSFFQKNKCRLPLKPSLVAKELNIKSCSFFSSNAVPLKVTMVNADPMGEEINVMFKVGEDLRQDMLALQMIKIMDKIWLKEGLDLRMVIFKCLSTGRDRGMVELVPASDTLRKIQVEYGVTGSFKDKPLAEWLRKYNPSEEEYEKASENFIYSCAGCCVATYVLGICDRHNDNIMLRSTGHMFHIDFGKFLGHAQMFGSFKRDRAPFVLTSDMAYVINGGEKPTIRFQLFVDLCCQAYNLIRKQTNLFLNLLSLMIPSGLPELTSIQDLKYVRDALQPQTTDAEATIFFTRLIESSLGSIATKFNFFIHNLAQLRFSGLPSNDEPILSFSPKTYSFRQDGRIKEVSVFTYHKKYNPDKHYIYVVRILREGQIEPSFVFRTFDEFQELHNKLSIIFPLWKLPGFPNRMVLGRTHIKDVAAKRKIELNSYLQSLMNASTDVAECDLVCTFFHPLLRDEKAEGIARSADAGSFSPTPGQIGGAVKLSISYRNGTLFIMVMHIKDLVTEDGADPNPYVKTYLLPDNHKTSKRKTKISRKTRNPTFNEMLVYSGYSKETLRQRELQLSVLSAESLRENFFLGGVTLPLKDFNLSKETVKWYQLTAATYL

As for `O=C(CSc1nc2nccnc2c(=O)n1CCc1ccccc1)NC1CCC1` [Example Compound 60, N-Cyclobutyl-2-((4-oxo-3-phenethyl-3,4-dihydropteridin-2-yl)thio)acetamide], the IC50 was determined as 5900 nM. Regarding `O=C(CCc1nc2nccnc2c(=O)n1CCc1ccccc1)Nc1ccccc1` [Example Compound 100, 3-(4-Oxo-3-phenethyl-3,4-dihydropteridin-2-yl)-N-phenylpropanamide], the inhibition at 10 µM turned out to be 31%. For the compound `O=c1c2nccnc2nc(SCc2nc3ccccc3[nH]2)n1CCc1ccccc1` [Example Compound 65, 2-(((1H-Benzo[d]imidazol-2-yl)methyl)thio)-3-phenethylpteridin-4(3H)-one], the IC50 is 170 nM.

Take `COC(=O)[C@H]1C[C@H](n2c(SCc3nc4ccccc4[nH]3)nc3nccnc3c2=O)C1` [Example Compound 92, trans-Methyl-3-(2-(((1H-benzo[d]imidazol-2-yl)methyl)thio)-4-oxo-pteridin-3(4H)-yl)cyclobutane-1-carboxylate]: the IC50 turned out to be 320 nM. Take `O=C(CSc1nc2nccnc2c(=O)n1Cc1ccco1)Nc1nccs1` [Example Compound 32, 2-((3-(Furan-2-ylmethyl)-4-oxo-3,4-dihydropteridin-2-yl)thio)-N-(thiazol-2-yl)acetamide]: the IC50 turned out to be 1800 nM. The same measure, in the same setting: the same measure for `O=c1c2nccnc2nc(SCc2nc3ccccc3o2)n1CCc1ccccc1` [Example Compound 63, 2-((Benzo[d]oxazol-2-ylmethyl)thio)-3-phenethylpteridin-4(3H)-one]: 5700 nM; for `CS(=O)(=O)c1ccc(-n2c(SCC(=O)Nc3nccs3)nc3nccnc3c2=O)cc1` [Example Compound 78, 2-((3-(4-(Methylsulfonyl)phenyl)-4-oxo-3,4-dihydropteridin-2-yl)thio)-N-(thiazol-2-yl)acetamide]: 9500 nM; for `O=C(CSc1nc2nccnc2c(=O)n1CCc1ccc(O)cc1)Nc1nccs1` [Example Compound 95, 2-((3-(4-Hydroxyphenethyl)-4-oxo-3,4-dihydropteridin-2-yl)thio)-N-(thiazol-2-yl)acetamide]: 210 nM. Same read-out and setting: the same measure for `O=c1[nH]c(CSc2nc3nccnc3c(=O)n2CCc2ccccc2)nc2ccccc12` [Example Compound 67, 2-(((4-Oxo-3,4-dihydroquinazolin-2-yl)methyl)thio)-3-phenethylpteridin-4(3H)-one]: 1900 nM; for `CC(C)(C)OC(=O)N1CCC(n2c(SCc3nc4ccccc4[nH]3)nc3nccnc3c2=O)CC1` [Example Compound 94, tert-Butyl 4-(2-(((1H-benzo[d]imidazol-2-yl)methyl)thio)4-oxopteridin-3(4H)-yl)piperidine-1-carboxylate]: 1200 nM; for `O=C(CSc1nc2nccnc2c(=O)n1Cc1ccccc1)Nc1nccs1` [Example Compound 42, 2-((3-Benzyl-4-oxo-3,4-dihydropteridin-2-yl)thio)-N-(thiazol-2-yl)acetamide]: less than 50000 nM.

Take `O=C(CSc1nc2nccnc2c(=O)n1CCc1ccccc1)Nc1nc(-c2cccc(O)c2)cs1` [Example Compound 1, N-(4-(3-Hydroxyphenyl)thiazol-2-yl)-2-((4-oxo-3-phenethyl-3,4-dihydropteridin-2-yl)thio)acetamide]: the IC50 stood at 120 nM. Still for that read-out and setting: the same measure for `N#Cc1ccc(-n2c(SCc3nc4ccccc4[nH]3)nc3nccnc3c2=O)cc1` [Example Compound 86, 4-(2-(((1H-Benzo[d]imidazol-2-yl)methyl)thio)-4-oxopteridin-3(4H)-yl)benzonitrile]: 1100 nM; for `C[C@@H](c1ccccc1)n1c(SCC(=O)Nc2nccs2)nc2nccnc2c1=O` [Example Compound 89, (S)-2-((4-Oxo-3-(1-phenylethyl)-3,4-dihydropteridin-2-yl)-thio)-N-(thiazol-2-yl) acetamide]: 1700 nM. `COC(=O)[C@H]1C[C@H](n2c(SCC(=O)Nc3nccs3)nc3nccnc3c2=O)C1` [Example Compound 91, trans-Methyl 3-(4-oxo-2-((2-oxo-2-(thiazol-2-ylamino)ethyl)thio)pteridin-3(4H)-yl)cyclobutane-1-carboxylate]: the IC50 worked out at 370 nM.

For the compound `O=C(CCc1nc2nccnc2c(=O)n1CCc1ccccc1)NCc1ccccc1` [Example Compound 101, N-Benzyl-3-(4-oxo-3-phenethyl-3,4-dihydropteridin-2-yl)propanamide], the inhibition at 10 µM was 28%. In the case of `O=c1c2nccnc2nc(SCc2ncc[nH]2)n1CCc1ccccc1` [Example Compound 76, 2-(((1H-Imidazol-2-yl)methyl)thio)-3-phenethylpteridin-4(3H)-one], the IC50 is 22000 nM.

Regarding `CNC(=O)c1ccc(-n2c(SCc3nc4ccccc4[nH]3)nc3nccnc3c2=O)cc1` [Example Compound 82, 4-(2-(((1H-Benzo[d]imidazol-2-yl)methyl)thio)-4-oxopteridin-3(4H)-yl)-N-methylbenzamide], the IC50 came to 610 nM. On the same count and under the same terms, with `O=C(CSc1nc2nccnc2c(=O)n1-c1cccc(-c2ccccc2)c1)Nc1nccs1` [Example Compound 17, 2-((3-([1,1′-Biphenyl]-3-yl)-4-oxo-3,4-dihydropteridin-2-yl)thio)-N-(thiazol-2-yl)acetamide] the figure was 9000 nM; with `O=c1c2nccnc2nc(SCc2nc3cc(Br)cnc3[nH]2)n1CCc1ccccc1` [Example Compound 74, 2-(((6-Bromo-3H-imidazo[4,5-b]pyridin-2-yl)methyl)thio)-3-phenethylpteridin-4(3H)-one], 910 nM; with `CS(=O)(=O)N(c1cccc(-c2csc(NC(=O)CSc3nc4nccnc4c(=O)n3CCc3ccccc3)n2)c1)S(C)(=O)=O` [Example Compound 55, N-(4-(3-(N-(Methylsulfonyl)methylsulfonamido)phenyl)thiazol-2-yl)-2-((4-oxo-3-phenethyl-3,4-dihydropteridin-2-yl)thio)acetamide], 200 nM.

As for `O=C(CSc1nc2nccnc2c(=O)n1CCc1cccc(F)c1)Nc1nc(-c2ccc(F)cc2)cs1` [Example Compound 6, 2-((3-(3-Fluorophenethyl)-4-oxo-3,4-dihydropteridin-2-yl)thio)-N-(4-(4-fluorophenyl)thiazol-2-yl)acetamide], the “PI3KC2α inhibitory activity (in words, SAR)” value is listed as “functional compounds” and the IC50 stood at 610 nM.

As to `O=C(CSc1nc2nccnc2c(=O)n1CCC1CCCCC1)Nc1nccs1` [Example Compound 44, 2-((3-(2-Cyclohexylethyl)-4-oxo-3,4-dihydropteridin-2-yl)thio)-N-(thiazol-2-yl)acetamide], the IC50 turned out to be 590 nM. In the case of `O=c1c2nccnc2nc(SCc2nc3ccccc3s2)n1CCc1ccccc1` [Example Compound 62, 2-((Benzo[d]thiazol-2-ylmethyl)thio)-3-phenethylpteridin-4(3H)-one], the IC50 amounted to 4000 nM.

`Cc1cnc2nc(SCC(=O)Nc3nccs3)n(CCc3ccccc3)c(=O)c2n1` [Example Compound 46, 2-((6-Methyl-4-oxo-3-phenethyl-3,4-dihydropteridin-2-yl)thio)-N-(thiazol-2-yl)acetamide]: the IC50 came out at 23000 nM. Still for that read-out and setting: the same measure for `Cn1c(=O)c2nc(CSc3nc4nccnc4c(=O)n3CCc3ccccc3)[nH]c2n(C)c1=O` [Example Compound 68, 1,3-Dimethyl-8-(((4-oxo-3-phenethyl-3,4-dihydropteridin-2-yl)thio)methyl)-3,9-dihydro-1H-purine-2,6-dione]: 1400 nM.
